Like-named read-outs stand apart in the source and are kept apart here.
Legend:
Format in all cases: cell-based
[1] = system: Human parechovirus strain 1; assay: CPE inhibition in mammalian cell culture, HPeV-1; settings: Parechovirus A; for inhibition at 10 µM: HPeV-1, Conc. 10.0 μM, read-out: % inh.; for inhibition at 5 µM: Conc. 5 µM
[2] = system: encephalomyocarditis virus; assay: CPE inhibition in mammalian cell culture, EMCV; settings: Cardiovirus A
[3] = system: coxsackie B virus strain 5; assay: CPE inhibition in mammalian cell culture, Cox-B5; design: inhibition: dose or concentration left out as unconfirmed
[4] = system: coxsackie B virus strain 2; assay: CPE inhibition in mammalian cell culture, Cox-B2; design: inhibition: dose or concentration left out as unconfirmed; settings: read-out: antiviral effect, B2
[5] = system: polio virus strain 1; assay: microbe, parasite or virus in culture; design: inhibition: dose or concentration left out as unconfirmed; settings: read-out: antiviral effect, Polio 1
[6] = system: Ljungan virus strain 012; assay: CPE inhibition in mammalian cell culture, LV012; settings: Parechovirus B; for inhibition at 5 µM: Conc. 5 µM
[7] = system: coxsackie B virus strain 1; assay: CPE inhibition in mammalian cell culture, Cox-B1; settings: read-out: antiviral effect, B1
[8] = system: coxsackie B virus strain 3; assay: CPE inhibition in mammalian cell culture, Cox-B3; settings: read-out: antiviral effect, B3
[9] = system: coxsackie B virus strain 4; assay: CPE inhibition in mammalian cell culture, Cox-B4
[10] = system: Enterovirus strain 30; assay: CPE inhibition in mammalian cell culture, EV30; settings: for inhibition at 5 µM: Conc. 5 µM
[11] = system: Ljungan virus strain 145; assay: CPE inhibition in mammalian cell culture, LV145; settings: Parechovirus B; Conc. 0.1 mM; read-out: antiviral effect, LV145
[12] = system: Enterovirus strain 6; assay: microbe, parasite or virus in culture; design: inhibition: dose or concentration left out as unconfirmed; settings: read-out: antiviral effect, EV6
[13] = system: Enterovirus strain 71; assay: CPE inhibition in mammalian cell culture, EV71; settings: Conc. 0.1 mM; read-out: antiviral effect, EV71
[14] = read-out: antiviral effect, HPeV-1
[15] = read-out: antiviral effect, LV012
[16] = read-out: antiviral effect, EV30

COc1ccc(-c2c(C)nn3c(Nc4ccon4)cc(C)nc23)cc1OC [Ex. 95, N-[3-(3,4-dimethoxyphenyl)-2,5-dimethyl-pyrazolo[1,5-a]pyrimidin-7-yl]isoxazol-3-amine] was tested, and the inhibition at 10 µM [1] was 55%.
Compound Cc1cc(NC(C)c2ccccc2)n2nc(C)c(-c3ccc(F)cc3)c2n1 (stereo not shown) [Ex. 3, 3-(4-fluorophenyl)-2,5-dimethyl-N-(1-phenylethyl)pyrazolo[1,5-a]pyrimidin-7-amine] has an inhibition at 2.5 µM ([2]; EMCV, Conc. 2.5 μM) of 92%.
In the case of Cc1cc(NCc2ccc(F)cc2)n2nc(C)c(-c3ccc(Cl)c(Cl)c3)c2n1 [Ex. 103, 3-(3,4-dichlorophenyl)-N-[(4-fluorophenyl)methyl]-2,5-dimethyl-pyrazolo[1,5-a]pyrimidin-7-amine], the inhibition at 10 µM ([2]; EMCV, Conc. 10.0 μM) is reported as 74%.
For COc1ccc(-c2c(C)nn3c(NCc4ccc(C(F)(F)F)cc4)cc(C)nc23)cc1OC [Ex. 72, 3-(3,4-dimethoxyphenyl)-2,5-dimethyl-N-[[4-(trifluoromethyl)phenyl]methyl]pyrazolo[1,5-a]pyrimidin-7-amine], the inhibition at 1000 µM ([3]; read-out: antiviral effect, B5) was 99%, the inhibition at 1000 µM [4] was 94% and the inhibition at 1000 µM [5] was 100%. The inhibition at 1 µM ([1]; Conc. 1 µM, read-out: antiviral effect, HPeV-1) was 4%, the inhibition at 1 µM ([6]; Conc. 1 µM, read-out: antiviral effect, LV012) was 0% and the inhibition at 1000 µM [7] was 100%. It also gave an inhibition at 1000 µM [8] of 99%, an inhibition at 0.1 µM ([9]; read-out: % inh.) of 85% and an inhibition at 1000 µM ([9]; read-out: antiviral effect, B4) of 91%. The inhibition at 1 µM ([10]; Conc. 1 µM, read-out: antiviral effect, EV30) was 100%.
In the case of COc1ccc(-c2cnn3c(NCc4ccncc4)cc(C)nc23)cc1OC [Ex. 100, 3-(3,4-dimethoxyphenyl)-5-methyl-N-(4-pyridylmethyl)pyrazolo[1,5-a]pyrimidin-7-amine], the inhibition at 100 µM ([2]; Conc. 0.1 mM, read-out: antiviral effect, EMCV) is reported as 0%, the inhibition ([3]; read-out: antiviral effect, B5) is reported as 90% and the inhibition [4] is reported as 99%. For the same compound, the inhibition [5] was 83%, the inhibition at 100 µM ([6]; Conc. 0.1 mM, read-out: antiviral effect, LV012) was 0% and the inhibition at 100 µM [11] was 0%. It also gave an inhibition [12] of 88%, an inhibition at 100 µM ([10]; Conc. 0.1 mM, read-out: antiviral effect, EV30) of 78% and an inhibition at 0.1 µM ([10]; EV30, Conc. 0.1 μM) of 78%. It also gave an inhibition at 100 µM [13] of 81%.
COc1ccc(-c2c(C)nn3c(Nc4ccc(Cl)cc4)cc(C)nc23)cc1OC [Ex. 47, N-(4-chlorophenyl)-3-(3,4-dimethoxyphenyl)-2,5-dimethyl-pyrazolo[1,5-a]pyrimidin-7-amine] showed an inhibition at 10 µM [1] of 56%.
Work on COc1ccc(CCNc2cc(C)nc3c(-c4ccc(OC)c(OC)c4)c(C)nn23)c(OC)c1 [Ex. 12, 3-(3,4-dimethoxyphenyl)-N-[2-(2,4-dimethoxyphenyl)ethyl]-2,5-dimethyl-pyrazolo[1,5-a]pyrimidin-7-amine] yielded an inhibition at 2500 µM ([3]; read-out: antiviral effect, B5) of 82%, an inhibition at 2500 µM [5] of 73% and an inhibition at 2.5 µM ([1]; Conc. 2.5 µM, read-out: antiviral effect, HPeV-1) of 8%. It also gave an inhibition at 2.5 µM ([6]; Conc. 2.5 µM, read-out: antiviral effect, LV012) of 60%, an inhibition at 2.5 µM ([6]; LV012, Conc. 2.5 μM, read-out: % inh.) of 60% and an inhibition at 2500 µM [7] of 93%. For the same compound, the inhibition at 2500 µM ([9]; read-out: antiviral effect, B4) was 77% and the inhibition at 2.5 µM ([10]; Conc. 2.5 µM, read-out: antiviral effect, EV30) was 84%.
COc1ccc(-c2c(C)nn3c(NCc4ccc5c(c4)OCO5)cc(C)nc23)cc1OC [Ex. 8, N-(1,3-benzodioxol-5-ylmethyl)-3-(3,4-dimethoxyphenyl)-2,5-dimethyl-pyrazolo[1,5-a]pyrimidin-7-amine] gave an inhibition at 0.25 µM ([3]; read-out: % inh.) of 100%, an inhibition at 5000 µM ([3]; read-out: antiviral effect, B5) of 100% and an inhibition at 5000 µM [4] of 100%. It also gave an inhibition at 5000 µM [5] of 91%, an inhibition at 5 µM [1, 14] of 14% and an inhibition at 5 µM [6, 15] of 38%. It also gave an inhibition ([12]; Conc.) of 88%, an inhibition at 5000 µM [7] of 82% and an inhibition at 5000 µM ([9]; read-out: antiviral effect, B4) of 89%. It also gave an inhibition at 5 µM [10, 16] of 53%.
COc1ccc(-c2c(C)nn3c(NCCc4ccc(Cl)cc4)cc(C)nc23)cc1OC [Ex. 5, N-[2-(4-chlorophenyl)ethyl]-3-(3,4-dimethoxyphenyl)-2,5-dimethyl-pyrazolo[1,5-a]pyrimidin-7-amine] was tested, and the inhibition at 5000 µM ([3]; read-out: antiviral effect, B5) was 94%, the inhibition at 5000 µM [4] was 76% and the inhibition at 5000 µM [5] was 68%. The inhibition at 5 µM [1, 14] was 22%, the inhibition at 5 µM [6, 15] was 18% and the inhibition ([12]; Conc.) was 80%. The inhibition at 5000 µM [7] was 79%, the inhibition at 0.25 µM ([9]; read-out: % inh.) was 71% and the inhibition at 5000 µM ([9]; read-out: antiviral effect, B4) was 97%. The inhibition at 5 µM [10, 16] was 58%.
